Assays:
[1] = tested on: chick chorioallantoic membrane angiogenesis; assay: Chick embryo chorioallantoic membrane (CAM) assay; assay type: in vivo; settings: applied to ED 4.5 CAM for two days; Compound 12 0.1 μg and 1 μg
Experimental: Figure 5 Compound 12 suppressed HIF-1α target gene expression, and confirmation of in vitro results via determination of effects on angiogenesis in vivo (A) A549 cells were treated with Compound 12 (at concentrations of 0 nM, 1 nM, 10 nM, and 100 nM) for 16 h. The mRNA levels of HIF-1α target genes were determined by semiquantitative RT-PCR. β-actin was used as an internal control. D. DMSO vehicle control. N, normoxia; H, hypoxia. (B) A549 cells were treated with serum-reduced culture media containing Compound 12 (at concentrations of 0 nM, 10 nM, and 100 nM) for 16 h. Media supernatant was collected, and secreted VEGF was determined by ELISA after removal of cellular debris. N, normoxia; H, hypoxia. **P < 0.01 versus hypoxia (H) DMSO (D)-treated control. (C) HUVECs were treated with Compound 12, at the indicated concentrations, in the presence of VEGF (20 ng/mL) for 24 h in 1% serum-containing media. […] Cells that migrated through the membrane (8 μm pore size) were stained with hematoxylin and eosin, pictured as shown in upper panel, and counted (graph). *P < 0.05, **P < 0.01 versus VEGF-treated control. […] (F) Compound 12 (0.1 μg and 1 μg dosages) and retinoic acid (RA, positive control) were applied to the ED 4.5 CAM for two days, neovessel formation from the large vessels was observed, and percentages of positive angiogenic eggs (from total eggs tested) were calculated. […]

[2] = target: HIF-1α (Homo sapiens, UniProt Q16665); assay: HIF-1α ubiquitination, IP/IB with MG132 in A549 cells; assay type: cell-based; settings: hypoxia 16 h, then MG132 20 μM 4 h, compared to normoxic control cells
HIF-1α, sequence (Q16665 whole entry): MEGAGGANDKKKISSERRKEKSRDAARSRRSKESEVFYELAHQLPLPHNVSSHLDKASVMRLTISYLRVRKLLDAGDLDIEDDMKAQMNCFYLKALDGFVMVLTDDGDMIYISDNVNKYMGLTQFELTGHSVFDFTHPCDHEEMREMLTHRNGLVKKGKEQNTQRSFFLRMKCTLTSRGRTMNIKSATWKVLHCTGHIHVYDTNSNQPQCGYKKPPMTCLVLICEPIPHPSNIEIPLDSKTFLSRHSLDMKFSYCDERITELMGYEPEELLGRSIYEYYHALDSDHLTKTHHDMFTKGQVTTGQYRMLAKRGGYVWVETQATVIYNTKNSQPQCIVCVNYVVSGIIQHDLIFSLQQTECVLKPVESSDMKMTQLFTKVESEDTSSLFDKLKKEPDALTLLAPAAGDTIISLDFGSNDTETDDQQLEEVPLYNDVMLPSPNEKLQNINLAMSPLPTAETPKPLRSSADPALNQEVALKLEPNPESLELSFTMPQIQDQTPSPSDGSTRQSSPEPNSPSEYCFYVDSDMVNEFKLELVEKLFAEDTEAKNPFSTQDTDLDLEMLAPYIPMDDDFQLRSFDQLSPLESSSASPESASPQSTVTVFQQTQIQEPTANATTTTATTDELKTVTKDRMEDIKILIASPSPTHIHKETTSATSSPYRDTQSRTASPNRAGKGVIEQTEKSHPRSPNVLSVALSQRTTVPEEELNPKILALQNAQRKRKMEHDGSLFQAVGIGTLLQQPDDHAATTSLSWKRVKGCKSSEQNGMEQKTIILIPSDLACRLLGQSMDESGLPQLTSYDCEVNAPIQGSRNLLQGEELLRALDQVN
Experimental: Figure 4 Compound 12 increased hydroxylation and proteasome-mediated degradation of HIF-1α (A) A549 cells were treated with Compound 12 (at concentrations of 0 nM, 1 nM, 10 nM, and 100 nM) for 16 h. Cells were fixed with paraformaldehyde; an immunofluorescence assay was then performed using anti-HIF-1α antibodies and Alexa Fluor 488-labeled secondary antibodies (green). Nuclei were stained with DAPI. N, normoxia; H, hypoxia. (B) A549 cells were treated with Compound 12 (10 nM concentration) and exposed to hypoxic conditions for 16 h. Cells were immediately treated with cycloheximide (CHX, 100 μg/mL) for the time indicated, and HIF-1α protein levels were determined by western blotting. β-actin was used as an internal control. Half-life (t1/2) of HIF-1α protein was determined using relative expression levels of HIF-1α. (C) A549 cells were treated with Compound 12 (at concentrations of 0 nM, 1 nM, 10 nM, and 100 nM) for 16 h. The expression levels of HIF-1α, hydroxylated (OH)-HIF-1α at P402 or P564, and PHD2 were determined via western blotting using specific antibodies. N, normoxia; H, hypoxia. (D) A549 cells were transfected with two kinds of small interfering RNAs targeting PHD2 and then treated with Compound 12 under hypoxic exposure for 16 h. Cell lysates were immunoblotted with an anti-HIF-1α and PHD2 antibody. […] Relative levels of ubiquitinated HIF-1α were quantified and graphed. […]

- ubiquitination of HIF-1α [2]: significantly increased
Structure (SMILES): COc1ccc(-c2cn(CC3(C)C=Cc4cc([N+](=O)[O-])ccc4O3)nn2)cc1 (centres unmarked) [Compound 12, 4-(4-methoxyphenyl)-1-((2-methyl-6-nitro-2H-chromen-2-yl)methyl)-1H-1,2,3-triazole]
- CAM angiogenesis [1]: significantly suppressed CAM angiogenesis, in a dose-dependent manner

Source: PMC5352362, “Molecular and functional evaluation of a novel HIF inhibitor, benzopyranyl 1,2,3-triazole compound” (Oncotarget, 2016)
